Measured values: patent publication US20260248881A1, “PHARMACEUTICAL COMPOSITION COMPRISING FOXM1 INHIBITOR AND IMMUNE CHECKPOINT INHIBITOR FOR PREVENTING OR TREATING CANCER” (National Cancer Center, priority 2022, published 2026)

Assays:
H1299 and PC9 cells = assay: Apoptotic cell death assay (Annexin V/PI staining); format: cell-based, human; conditions: 5 μM TST or siFOXM1
Experimental: H1299 and PC9 cells (1×10^5) were cultured in 6-well plates, transfected with siFOXM1 or NC siRNA or treated with 5 μM TST or dimethyl sulfoxide (DMSO), and then stained using fluorescein isothiocyanate (FITC) Annexin V Apoptosis Detection Kit I (#556547; BD Biosciences). Cells were analyzed within 1 hour to reduce side effects due to staining, and flow cytometry was performed using a FACSVerse cell analyzer (BD Biosciences).

MC38 cells = assay: Apoptotic cell death assay (Annexin V assay), MC38; format: cell-based, mouse; conditions: TST 5 μM, 48 hours
Experimental: MC38 cells (8.0×10^4) were seeded in 6-well plates and cultured for 24 hours. The cells were treated with TST (5 μM) for 48 hours, harvested, and analyzed via FACS-Verse using a BD FITC Annexin V Apoptosis Detection Kit I (Cat No. 556547; BD Biosciences, San Diego, CA, USA) according to the manufacturer's protocol.

PD-L1 = PD-L1 expression on cell membrane of H1299 and PC9 cells (immunocytochemistry, Western blot); format: cell-based, human; conditions: for PD-L1 expression restoration on the cell membrane by FOXM1 overexpression, by: TST 5 μM 48 hours in the presence of IFNγ; for reduction in the PD-L1 levels (cell membrane): TST in the presence of IFNγ, vs DMSO control
Experimental: Cells were lysed in RIPA buffer supplemented with complete mini protease inhibitor cocktail (#04693124001; Roche, Basel, Switzerland) and kept on ice for 30 minutes. Equal amounts of protein were evenly loaded and analyzed by sodium dodecyl sulfate-polyacrylamide gel electrophoresis (SDS-PAGE), and transferred to polyvinylidene difluoride (PVDF) membranes (#IPVH 00010; Millipore, Billerica, MA, USA) at 100 V for 1 hour. Primary antibodies (Santa Cruz Biotechnology, Texas, USA) specific for FOXM1 (#sc-271746), cyclin E1 (#sc-481), α-tubulin (#sc-8035), and β-actin (#sc-47778); PD-L1 (#13684S), cyclin D1 (#2978S), cyclin B1 (#4138S), c-MYC (#5605S), and poly(ADP-ribose) polymerase (PARP, #9542S; Cell Signaling Technology, Beverly, MA, USA) were used to probe proteins of interest. A horseradish-peroxidase-conjugated secondary antibodies specific to the primary antibody was used to detect proteins using pico-enhanced chemiluminescence substrate (#34577; Thermo Fisher Scientific).
Cells were fixed in 4% paraformaldehyde (#30525-89-4; FUJIFILM Wako Chemical, Wako, Japan) for 15 minutes and blocked with 1% bovine serum albumin (BSA) in phosphate-buffered saline-0.01% Tween-20 (PBS-T) to reduce nonspecific antibody binding. Cells were then incubated overnight with an anti-PD-L1 antibody (#14598382; eBioscience, San Diego, CA, USA) diluted 1:200 and an anti-FOXM1 antibody (#sc-271746; Santa Cruz Biotechnology) diluted 1:50, followed by incubation with an Alexa Fluor 488-labeled secondary antibody (#A11029; Thermo Fisher Scientific) for 1 hour. Nuclei were stained with Hoechst 33342. After incubation, cells were washed with PBS and mounted on glass slides using Prolong Glass Antifade mounting medium (#P36982; Thermo Fisher Scientific). Confocal microscopy was performed using a Zeiss 730 Meta microscope (Carl Zeiss, Oberkochen, Germany) and analyzed using Axiovision software (Carl Zeiss).

## thiostrepton [TST]
H1299 and PC9 cells
  apoptotic cell population (annexin V/PI positive cells): significantly increased in a time-dependent manner
MC38 cells
  apoptotic cell death (flow cytometry): significantly increased apoptotic cell death
PD-L1; H1299
  elevated level of PD-L1 by pFLAG-FOXM1 overexpression decreased to: 41.9%
  PD-L1 expression restoration on the cell membrane by FOXM1 overexpression, by: 38.7%
  reduction in the PD-L1 levels (cell membrane): 87.23%
PD-L1; PC9
  elevated level of PD-L1 by pFLAG-FOXM1 overexpression decreased to: 68.0%
  PD-L1 expression restoration on the cell membrane by FOXM1 overexpression, by: 46%
  reduction in the PD-L1 levels (cell membrane): 85.82%
